≈ marks a conversion by molar mass, not a printed value.
Legend:
Escherichia coli = test: Antibacterial activity against Escherichia coli ATCC 10536 after 24 hr by broth microdilution method; format: functional; conditions: ATCC 10536, 24 h
[1] = test system: Mycobacterium tuberculosis; test: Antitubercular activity against Mycobacterium tuberculosis H37Rv after 21 days by broth microdilution method; format: functional; conditions: 504 h
Staphylococcus aureus = test: Antibacterial activity against Staphylococcus aureus ATCC 11632 after 24 hr by broth microdilution method; format: functional; conditions: ATCC 11632, 24 h
Pseudomonas aeruginosa = test: Antibacterial activity against Pseudomonas aeruginosa ATCC 10145 after 24 hr by broth microdilution method; format: functional; conditions: ATCC 10145, 24 h
Aspergillus niger = test: Antifungal activity against Aspergillus niger ATCC 6275 after 24 hr by broth microdilution method; format: functional; conditions: ATCC 6275, 24 h
Klebsiella pneumoniae = test: Antibacterial activity against Klebsiella pneumoniae ATCC 10031 after 24 hr by broth microdilution method; format: functional; conditions: ATCC 10031, 24 h
Bacillus subtilis = test: Antibacterial activity against Bacillus subtilis ATCC 60511 after 24 hr by broth microdilution method; format: functional; conditions: ATCC 60511, 24 h
Candida tropicalis = test: Antifungal activity against Candida tropicalis ATCC 1369 after 24 hr by broth microdilution method; format: functional; conditions: ATCC 1369, 24 h
Saccharomyces cerevisiae = test: Antifungal activity against Saccharomyces cerevisiae ATCC 9763 after 24 hr by broth microdilution method; format: functional; conditions: ATCC 9763, 24 h
Enterococcus faecalis = test: Antibacterial activity against Enterococcus faecalis ATCC 14506 after 24 hr by broth microdilution method; format: functional; conditions: ATCC 14506, 24 h
A549 = test: Cytotoxicity against Homo sapiens (human) A549 cells at […] by MTT assay relative to control; format: cell-based

SMILES	MIC (Escherichia coli) [µg/mL]	MIC [1] [µg/mL]	MIC (Staphylococcus aureus) [µg/mL]	MIC (Pseudomonas aeruginosa) [µg/mL]	MIC (Aspergillus niger) [µg/mL]	MIC (Klebsiella pneumoniae) [µg/mL]	MIC (Bacillus subtilis) [µg/mL]	MIC (Candida tropicalis) [µg/mL]	MIC (Saccharomyces cerevisiae) [µg/mL]	MIC (Enterococcus faecalis) [µg/mL]	Activity (A549) [%]
CC(C)c1csc(-c2nnc(S(=O)(=O)Cc3ccc(Cl)cc3)o2)n1	4 (≈ 10.4 µM)	4 (≈ 10.4 µM)	16 (≈ 41.7 µM)	8 (≈ 20.8 µM)	16 (≈ 41.7 µM)	8 (≈ 20.8 µM)	8 (≈ 20.8 µM)	8 (≈ 20.8 µM)	8 (≈ 20.8 µM)	31.2 (≈ 81.4 µM)	
CC(C)c1csc(-c2nnc(S(=O)(=O)Cc3ccc(Cl)cc3)n2/N=C/c2c(F)cccc2F)n1	8 (≈ 15.3 µM)	8 (≈ 15.3 µM)	31.2 (≈ 59.9 µM)	62.5 (≈ 120 µM)	31.2 (≈ 59.9 µM)	31.2 (≈ 59.9 µM)	8 (≈ 15.3 µM)	16 (≈ 30.7 µM)	62.5 (≈ 120 µM)	31.2 (≈ 59.9 µM)	
CC(C)c1csc(-c2nnc(S(=O)(=O)Cc3ccc(Br)cc3)o2)n1	4 (≈ 9.34 µM)	4 (≈ 9.34 µM)	8 (≈ 18.7 µM)	8 (≈ 18.7 µM)	31.2 (≈ 73 µM)	8 (≈ 18.7 µM)	31.2 (≈ 73 µM)	31.2 (≈ 73 µM)	62.5 (≈ 146 µM)	31.2 (≈ 73 µM)	
CC(C)c1csc(-c2nnc(S(=O)(=O)Cc3cc(Cl)ccc3F)o2)n1	8 (≈ 19.9 µM)	4 (≈ 9.95 µM)	8 (≈ 19.9 µM)	4 (≈ 9.95 µM)	8 (≈ 19.9 µM)	4 (≈ 9.95 µM)	8 (≈ 19.9 µM)	8 (≈ 19.9 µM)	16 (≈ 39.8 µM)	31.2 (≈ 77.8 µM)	
CC(C)c1csc(-c2nnc(S(=O)(=O)Cc3ccc(Br)cc3F)n2/N=C/c2c(F)cccc2F)n1	16 (≈ 27.4 µM)	8 (≈ 13.7 µM)	31.2 (≈ 53.5 µM)	8 (≈ 13.7 µM)	16 (≈ 27.4 µM)	31.2 (≈ 53.5 µM)	16 (≈ 27.4 µM)	16 (≈ 27.4 µM)	16 (≈ 27.4 µM)	31.2 (≈ 53.5 µM)	
CC(C)c1csc(-c2nnc(S(=O)(=O)Cc3ccccc3)n2/N=C/c2c(F)cccc2F)n1	31.2 (≈ 64.1 µM)	4 (≈ 8.2 µM)	4 (≈ 8.2 µM)	4 (≈ 8.2 µM)	8 (≈ 16.4 µM)	31.2 (≈ 64.1 µM)	62.5 (≈ 128 µM)	16 (≈ 32.8 µM)	8 (≈ 16.4 µM)	8 (≈ 16.4 µM)	
CC(C)c1csc(-c2nnc(S(=O)(=O)Cc3ccc(Br)cc3)n2/N=C/c2ccc(F)cc2)n1	8 (≈ 14.6 µM)	8 (≈ 14.6 µM)	62.5 (≈ 114 µM)	62.5 (≈ 114 µM)	125 (≈ 228 µM)	8 (≈ 14.6 µM)	8 (≈ 14.6 µM)	31.2 (≈ 57 µM)	31.2 (≈ 57 µM)	62.5 (≈ 114 µM)	
CCn1cc(C(=O)O)c(=O)c2cc(F)c(N3CCNCC3)cc21 [NORFLOXACIN]	≤ 1		≤ 5	≤ 5		≤ 1	≤ 1			≤ 5	
CC(C)c1csc(-c2nnc(S(=O)(=O)Cc3ccccc3)o2)n1	8 (≈ 22.9 µM)	4 (≈ 11.4 µM)	62.5 (≈ 179 µM)	8 (≈ 22.9 µM)	16 (≈ 45.8 µM)	8 (≈ 22.9 µM)	31.2 (≈ 89.4 µM)	8 (≈ 22.9 µM)	4 (≈ 11.4 µM)	16 (≈ 45.8 µM)	
CC(C)c1csc(-c2nnc(S(=O)(=O)Cc3ccc(C(F)(F)F)cc3)n2/N=C/c2c(F)cccc2F)n1	4 (≈ 7.2 µM)	0.5 (≈ 0.9 µM)	8 (≈ 14.4 µM)	8 (≈ 14.4 µM)	8 (≈ 14.4 µM)	16 (≈ 28.8 µM)	8 (≈ 14.4 µM)	4 (≈ 7.2 µM)	16 (≈ 28.8 µM)	16 (≈ 28.8 µM)	50
CC(C)c1csc(-c2nnc(S(=O)(=O)Cc3ccc(Br)cc3)n2-c2ccccc2)n1	16 (≈ 31.8 µM)	8 (≈ 15.9 µM)	8 (≈ 15.9 µM)	8 (≈ 15.9 µM)	16 (≈ 31.8 µM)	16 (≈ 31.8 µM)	16 (≈ 31.8 µM)	16 (≈ 31.8 µM)	16 (≈ 31.8 µM)	16 (≈ 31.8 µM)	
CC(C)c1csc(-c2nnc(S(=O)(=O)Cc3ccc(Br)cc3F)n2/N=C/c2ccc(Cl)cc2)n1	62.5 (≈ 107 µM)	8 (≈ 13.7 µM)	31.2 (≈ 53.6 µM)	16 (≈ 27.4 µM)	8 (≈ 13.7 µM)	31.2 (≈ 53.6 µM)	8 (≈ 13.7 µM)	8 (≈ 13.7 µM)	16 (≈ 27.4 µM)	31.2 (≈ 53.6 µM)	
CC(C)c1csc(-c2nnc(S(=O)(=O)Cc3ccc(C(F)(F)F)cc3)n2-c2ccccc2)n1	16 (≈ 32.5 µM)	4 (≈ 8.12 µM)	4 (≈ 8.12 µM)	16 (≈ 32.5 µM)	16 (≈ 32.5 µM)	16 (≈ 32.5 µM)	8 (≈ 16.2 µM)	31.2 (≈ 63.4 µM)	16 (≈ 32.5 µM)	8 (≈ 16.2 µM)	

Source: ChEMBL document CHEMBL3046455, “Synthesis and pharmacological evaluation of some novel 4-isopropyl thiazole-based sulfonyl derivatives as potent antimicrobial and antitubercular agents” (Med Chem Res, 2013)
